“Also recorded” adds a separate entry of the source.
Assays:
[1] = test system: E. coli (Watson strain); experiment: GML and EDTA on the growth of E. coli; assay type: cell-based; conditions: 24 hours; EDTA 0.05 M to 0.00005 M; GML 100 μg/mL
Method: E. coli (Watson strain) was adjusted to I.2×10^7/mL in Todd Hewitt media. […] Cultures were incubated with shaking (200 RPM) for 24 hours, at which time samples were removed for plate counting. To further assess the combined effects of GML and EDTA, the experiment was carried out as above, and the relative effects on the growth of E. coli of EDTA alone or the combination of GML and EDTA were assessed in direct comparison to GML alone.

[2] = test system: S. pyogenes (strain 594); experiment: Antibacterial effects of various forms of GML; assay type: cell-based
Method: In order to test for potential differences between the optical isomers, the R form of GML, which is commercially available, was compared to a GML racemic mixture of the R and S forms. […] Antibacterial effects of these forms of GML was assessed on S. pyogenes (strain 594).

[3] = Solubility of Tenofovir in non-aqueous gels; assay type: physicochemical; conditions: 10 mg/mL
Method: Non-aqueous gels comprised of propylene glycol (73.55% w/w), polyethylene glycol 400 (25% w/w), and hydroxypropyl cellulose (1.25% w/w) at a range of pH from 4.0 to 4.5 were prepared. The anti-HIV drug Tenofovir was added to the gels at a concentration of 10 mg/mL to determine if the drug was soluble in the compositions.

O=C(O)CN(CCN(CC(=O)O)CC(=O)O)CC(=O)O [EDTA, ethylenediaminetetraacetic acid]
anti-bacterial activity on growth of E. coli (CFU/mL) [1]: inhibited the growth of E. coli somewhat, in a dose-dependent manner; also recorded: inhibited the growth of E. coli to some extent at higher concentrations

CCCCCCCCCCCC(=O)OC(CO)CO [Glycerol monolaurate (GML) 2-position]
activity relative to the mixture of 2-position and ⅓-position GML forms [2]: 2 fold

CCCCCCCCCCCC(=O)OC[C@H](O)CO [R form GML]
antibacterial activity, R form versus mixture of R and S forms [2]: same antibacterial activity

C[C@H](Cn1cnc2c(N)ncnc21)OCP(=O)(O)O [Tenofovir]
solubility in non-aqueous gel ([3]; pH 4.0-4.3): not soluble
solubility in non-aqueous gel ([3]; pH 4.4 or 4.5): soluble

CCCCCCCCCCCC(=O)OCC(O)CO (stereo not drawn) [mixture of R and S form GML]
antibacterial activity, R form versus mixture of R and S forms [2]: same antibacterial activity

Reference: patent US12194140B2, “Compositions for topical treatment of microbial infections” (Hennepin Life Sciences, priority 2012, dated 2025)
